Results reported in EP0028117A1, “Guanidine compounds, process for preparing them and compositions containing them” (SMITH KLINE & FRENCH LABORATORIES LIMITED, priority 1979, dated 1981).
pIC50: −log10 of the molar value.

Legend:
[1] = biological target: T1, histamine H2-receptors (Cavia porcellus, UniProt P47747); experiment: Inhibition of histamine-induced tachycardia in the isolated guinea pig atrium; conditions: read-out: effective dose producing 50% inhibition of the histamine-induced tachycardia
T1 construct: histamine-induced tachycardia in the isolated guinea pig atrium; from tissue; host or cells: isolated guinea pig atrium
T1 sequence (P47747 whole entry): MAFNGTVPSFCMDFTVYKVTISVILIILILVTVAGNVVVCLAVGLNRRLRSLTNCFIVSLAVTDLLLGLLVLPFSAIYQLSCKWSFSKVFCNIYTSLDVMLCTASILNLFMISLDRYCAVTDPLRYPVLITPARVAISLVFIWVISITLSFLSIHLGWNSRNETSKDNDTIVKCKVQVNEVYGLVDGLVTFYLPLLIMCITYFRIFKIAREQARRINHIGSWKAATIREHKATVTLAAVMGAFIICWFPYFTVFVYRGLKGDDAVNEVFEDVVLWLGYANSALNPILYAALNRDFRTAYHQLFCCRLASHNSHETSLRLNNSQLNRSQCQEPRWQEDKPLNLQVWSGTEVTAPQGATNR
From the text: This procedure is referred to in Ash and Schild, Brit. J. Pharmac. Chemother., 1966. 27. […] For example, they inhibit the actions of histamine on the isolated guinea pig atrium.

[2] = tested on: histamine H2-receptors; experiment: Inhibition of histamine-stimulated gastric acid secretion from lumen-perfused stomachs of anaesthetised rats; type: in vivo; conditions: i.v., lumen-perfused stomachs of rats anaesthetised with urethane

## N=C(N)Nc1nc(CSCCNc2[nH]ccc2[N+](=O)[O-])cs1 [Example 1, 2-[2-(2-Guanidino-4-thiazolylmethylthio)ethylamin]-3-nitropyrrole]
[1]
  pIC50: > 6.00
[2]
  doses causing 50% inhibition of maximal acid secretion: less than 0.1 micromole kg^-1
